Holding throughout (type): functional
The subject of test [1] is Desulfovibrio piger. In words: Antimicrobial activity against Desulfovibrio piger by Etest method.
For test [2], the system named is Desulfovibrio fairfieldensis. The experiment in a line: Antimicrobial activity against Desulfovibrio fairfieldensis by Etest method.
Test [3] concerns Desulfovibrio desulfuricans. In words: Antimicrobial activity against Desulfovibrio desulfuricans MB by Etest method.
The subject of test [4] is Desulfovibrio sp. In words: Antimicrobial activity against Desulfovibrio sp. by Etest method.
Test [5] concerns Desulfovibrio desulfuricans. The experiment in a line: Antimicrobial activity against Desulfovibrio desulfuricans Essex 6 by Etest method.
The subject of test [6] is Desulfovibrio desulfuricans. In words: Antimicrobial activity against Desulfovibrio desulfuricans MB in presence of Tazobactam by Etest method.
Test [7] concerns Desulfovibrio fairfieldensis. The experiment in a line: Antimicrobial activity against Desulfovibrio fairfieldensis in presence of Tazobactam by Etest method.
The subject of test [8] is Desulfovibrio sp. The experiment in a line: Antimicrobial activity against Desulfovibrio sp. in presence of Tazobactam by Etest method.
The test system of test [9] is Desulfovibrio desulfuricans. In words: Antimicrobial activity against Desulfovibrio desulfuricans Essex 6 in presence of Tazobactam by Etest method.
In test [10] the test system is Desulfovibrio piger. The experiment in a line: Antimicrobial activity against Desulfovibrio piger in presence of Tazobactam by Etest method.
The test system of test [11] is Desulfovibrio fairfieldensis. In words: Antimicrobial activity against Desulfovibrio fairfieldensis in presence of Sulbactam by Etest method.
Test [12] deals with Desulfovibrio piger. In words: Antimicrobial activity against Desulfovibrio piger in presence of Sulbactam by Etest method.
Test [13] relates to Desulfovibrio desulfuricans. The experiment in a line: Antimicrobial activity against Desulfovibrio desulfuricans Essex 6 in presence of Sulbactam by Etest method.
Test [14] concerns Desulfovibrio desulfuricans. In words: Antimicrobial activity against Desulfovibrio desulfuricans MB in presence of Sulbactam by Etest method.
Test [15] concerns Desulfovibrio sp. The experiment in a line: Antimicrobial activity against Desulfovibrio sp. in presence of Sulbactam by Etest method.

Converted amounts (≈) assume the structure as drawn.

`CO/N=C(\C(=O)N[C@@H]1C(=O)N2C(C(=O)[O-])=C(C[n+]3cccc4c3CCC4)CS[C@H]12)c1csc(N)n1` [CEFPIROME]: the minimum inhibitory concentration (MIC) (as a rule, the lowest concentration that inhibits growth of the organism) in the test with Desulfovibrio piger [1] is 0.75 µg/mL (≈ 1.46 µM); in test [2] it was > 256 µg/mL; in test [3], 0.5 µg/mL (≈ 0.972 µM); in [5], 0.5 µg/mL (≈ 0.972 µM). Besides, the MIC50 (usually an inhibitory concentration at the 50% level, which refers to growth in some studies and to a panel of isolates in others) in the test on Desulfovibrio sp. [4] came to 4 µg/mL (≈ 7.77 µM). Moreover, the MIC90 (as a rule, the lowest concentration that inhibits either 90% of growth or 90% of the strains tested, depending on the study) against Desulfovibrio sp. [4] is > 256 µg/mL.
In the case of `CO/N=C(\C(=O)N[C@@H]1C(=O)N2C(C(=O)O)=C(COC(C)=O)CS[C@H]12)c1csc(N)n1` [CEFOTAXIME], the MIC in the test with Desulfovibrio piger [1] is 1 µg/mL (≈ 2.2 µM); in test [2] it was > 0.047 µg/mL; in [3], 0.5 µg/mL (≈ 1.1 µM); in test [5], 0.047 µg/mL (≈ 0.103 µM). Also, in the test with Desulfovibrio sp. [4], the MIC50 was 1.5 µg/mL (≈ 3.29 µM). In the test on Desulfovibrio sp. [4], the MIC90 was > 256 µg/mL.
For the molecule `CCN1CCN(C(=O)N[C@@H](C(=O)N[C@@H]2C(=O)N3[C@@H]2SC(C)(C)[C@@H]3C(=O)O)c2ccccc2)C(=O)C1=O` [PIPERACILLIN], the MIC is 32 µg/mL in [6]; > 256 µg/mL in [7]; > 256 µg/mL with Desulfovibrio piger [1]; > 256 µg/mL in [2]; > 16 µg/mL in [9]; > 32 µg/mL in [3]. For the same molecule, the MIC (in the test with Desulfovibrio piger [10]; in [5]) was > 256 µg/mL throughout. In addition, the MIC50 in the test with Desulfovibrio sp. [8] and against Desulfovibrio sp. [4] was > 256 µg/mL each time. Also, the MIC90 with Desulfovibrio sp. [8] and against Desulfovibrio sp. [4] was > 256 µg/mL throughout.
Turning to `CN(C)c1ccc(O)c2c1C[C@H]1C[C@H]3[C@H](N(C)C)C(O)=C(C(N)=O)C(=O)[C@@]3(O)C(O)=C1C2=O` [MINOCYCLINE], the MIC in the test with Desulfovibrio piger [1] was 0.19 µg/mL (≈ 0.415 µM); in [2], 4 µg/mL (≈ 8.74 µM); in [3], 3 µg/mL (≈ 6.56 µM); in test [5] it was 2 µg/mL (≈ 4.37 µM). This molecule also displayed an MIC50 against Desulfovibrio sp. [4] of 6 µg/mL (≈ 13.1 µM). The same molecule came in with an MIC90 in the test on Desulfovibrio sp. [4] of 24 µg/mL (≈ 52.5 µM).
Regarding `CC1(C)S[C@@H]2[C@H](NC(=O)[C@H](N)c3ccccc3)C(=O)N2[C@H]1C(=O)O` [AMPICILLIN], the MIC in [11] was 4 µg/mL; against Desulfovibrio piger [1], 12 µg/mL (≈ 34.3 µM); in the test with Desulfovibrio piger [12] it was 0.5 µg/mL; in test [2], 4 µg/mL (≈ 11.4 µM); in test [3], 0.19 µg/mL (≈ 0.544 µM); in test [13], 0.125 µg/mL. The MIC is 0.064 µg/mL in test [14], 0.19 µg/mL (≈ 0.544 µM) in test [5] and 0.06 µg/mL in the test on Desulfovibrio sp. [15]. In addition, the figures for the MIC50 against Desulfovibrio sp. [4] and in the test with Desulfovibrio sp. [15] were 0.75 µg/mL (≈ 2.15 µM) and 0.38 µg/mL, respectively. In addition, the MIC90 is 8 µg/mL (≈ 22.9 µM) in the test on Desulfovibrio sp. [4] and 6 µg/mL in the test on Desulfovibrio sp. [15].
With `CO[C@@]1(NC(=O)Cc2cccs2)C(=O)N2C(C(=O)O)=C(COC(N)=O)CS[C@@H]21` [CEFOXITIN], the MIC is 16 µg/mL (≈ 37.4 µM) in the test on Desulfovibrio piger [1], > 64 µg/mL in test [2], > 16 µg/mL in [3] and > 256 µg/mL in test [5]. For the same molecule, the MIC50 against Desulfovibrio sp. [4] was > 256 µg/mL. The MIC90 against Desulfovibrio sp. [4] is > 256 µg/mL.
As to `CC[C@H]1OC(=O)[C@H](C)[C@@H](O[C@H]2C[C@@](C)(OC)[C@@H](O)[C@H](C)O2)[C@H](C)[C@@H](O[C@@H]2O[C@H](C)C[C@H](N(C)C)[C@H]2O)[C@](C)(O)C[C@@H](C)C(=O)[C@H](C)[C@@H](O)[C@]1(C)O` [ERYTHROMYCIN], the MIC came out at 0.016 µg/mL (≈ 0.0218 µM) in the test with Desulfovibrio piger [1], 0.5 µg/mL (≈ 0.681 µM) in [2], 0.38 µg/mL (≈ 0.518 µM) in test [3] and 0.38 µg/mL (≈ 0.518 µM) in test [5]. Also, the MIC50 in the test with Desulfovibrio sp. [4] was 0.5 µg/mL (≈ 0.681 µM). Further, the MIC90 against Desulfovibrio sp. [4] is 1.5 µg/mL (≈ 2.04 µM).
`O=C(N[C@H](CO)[C@H](O)c1ccc([N+](=O)[O-])cc1)C(Cl)Cl` [CHLORAMPHENICOL]: the MIC against Desulfovibrio piger [1] came to 1.5 µg/mL (≈ 4.64 µM); in test [2], 3 µg/mL (≈ 9.28 µM); in test [3], 1.5 µg/mL (≈ 4.64 µM); against Desulfovibrio sp. [4] it was 1.5 µg/mL (≈ 4.64 µM); in test [5] it was 1.5 µg/mL (≈ 4.64 µM). In the test with Desulfovibrio sp. [4], this molecule displayed an MIC50 of 4 µg/mL (≈ 12.4 µM). The molecule further came in with an MIC90 against Desulfovibrio sp. [4] of 8 µg/mL (≈ 24.8 µM).
For `Cc1ncc([N+](=O)[O-])n1CCO` [METRONIDAZOLE], the MIC in the test on Desulfovibrio piger [1] amounted to 0.032 µg/mL (≈ 0.187 µM); in test [2], 0.016 µg/mL (≈ 0.0935 µM); in test [3], 0.016 µg/mL (≈ 0.0935 µM); in test [5], 0.064 µg/mL (≈ 0.374 µM). The MIC50 in the test with Desulfovibrio sp. [4] came to 0.125 µg/mL (≈ 0.73 µM). Also, in the test on Desulfovibrio sp. [4], the MIC90 came to 0.25 µg/mL (≈ 1.46 µM).
For the molecule `CC(=O)OCC1=C(C(=O)O)N2C(=O)[C@@H](NC(=O)Cc3cccs3)[C@H]2SC1` [CEPHALOTHIN], the MIC with Desulfovibrio piger [1] is > 96 µg/mL; in [2] it was > 256 µg/mL; in [3], 2 µg/mL (≈ 5.04 µM); in test [5], > 3 µg/mL. Further, the MIC50 with Desulfovibrio sp. [4] was > 256 µg/mL. Besides, the MIC90 against Desulfovibrio sp. [4] was > 256 µg/mL.
On to `CCN1CCN(C(=O)N[C@@H](C(=O)N[C@@H]2C(=O)N3C(C(=O)O)=C(CSc4nnnn4C)CS[C@H]23)c2ccc(O)cc2)C(=O)C1=O` [CEFOPERAZONE], for which the MIC in test [11] is > 24 µg/mL; against Desulfovibrio piger [1], 12 µg/mL (≈ 18.6 µM); in the test with Desulfovibrio piger [12] it was 1 µg/mL; in test [2] it was > 256 µg/mL; in test [3], 12 µg/mL (≈ 18.6 µM); in test [13], > 3 µg/mL. Besides, the MIC is 1 µg/mL in test [14] and > 16 µg/mL in test [5]. In addition, the MIC50 in the test on Desulfovibrio sp. [4] is > 256 µg/mL; in the test with Desulfovibrio sp. [15], 4 µg/mL. The MIC90 against Desulfovibrio sp. [4] and in the test with Desulfovibrio sp. [15] was > 256 µg/mL each time.
Turning to `CC(C)(O/N=C(\C(=O)N[C@@H]1C(=O)N2C(C(=O)[O-])=C(C[n+]3ccccc3)CS[C@H]12)c1csc(N)n1)C(=O)O` [CEFTAZIDIME], the MIC against Desulfovibrio piger [1] is 3 µg/mL (≈ 5.49 µM); in [2] it was > 256 µg/mL; in [3], 2 µg/mL (≈ 3.66 µM); in test [5], > 3 µg/mL. For the same molecule, the MIC50 against Desulfovibrio sp. [4] worked out at 6 µg/mL (≈ 11 µM). For the same molecule, in the test on Desulfovibrio sp. [4], the MIC90 was > 256 µg/mL.
As to `C[C@H]1COc2c(N3CCN(C)CC3)c(F)cc3c(=O)c(C(=O)O)cn1c23.C[C@H]1COc2c(N3CCN(C)CC3)c(F)cc3c(=O)c(C(=O)O)cn1c23.O` [LEVOFLOXACIN], the MIC against Desulfovibrio piger [1] is 0.095 µg/mL; in [2], > 32 µg/mL; in test [3], 0.25 µg/mL; in test [5], 0.25 µg/mL. Further, the MIC50 in the test on Desulfovibrio sp. [4] is 0.75 µg/mL. Further, the MIC90 in the test with Desulfovibrio sp. [4] was > 32 µg/mL.
Regarding `C[C@@H](O)[C@H]1C(=O)N2C(C(=O)O)=C(S[C@@H]3CN[C@H](C(=O)N(C)C)C3)[C@H](C)[C@H]12` [MEROPENEM], the MIC with Desulfovibrio piger [1] turned out to be 0.032 µg/mL (≈ 0.0834 µM); in [2], 2 µg/mL (≈ 5.22 µM); in test [3] it was 0.023 µg/mL (≈ 0.06 µM); in test [5] it was 0.064 µg/mL (≈ 0.167 µM). Also, the MIC50 against Desulfovibrio sp. [4] was found to be 0.19 µg/mL (≈ 0.495 µM). Also, the MIC90 in the test on Desulfovibrio sp. [4] was found to be 4 µg/mL (≈ 10.4 µM).
`CCC[C@@H]1C[C@@H](C(=O)N[C@@H]([C@H]2O[C@H](SC)[C@H](O)[C@@H](O)[C@H]2O)[C@H](C)Cl)N(C)C1` [CLINDAMYCIN]: the MIC against Desulfovibrio piger [1] amounted to 0.016 µg/mL (≈ 0.0376 µM); in test [2] it was 0.032 µg/mL (≈ 0.0753 µM); in [3], 0.094 µg/mL (≈ 0.221 µM); in test [5], 0.094 µg/mL (≈ 0.221 µM). The MIC50 against Desulfovibrio sp. [4] was 0.125 µg/mL (≈ 0.294 µM). In the test with Desulfovibrio sp. [4], this molecule displayed an MIC90 of 0.19 µg/mL (≈ 0.447 µM).
Consider `O=C(O)c1cn(C2CC2)c2cc(N3CCNCC3)c(F)cc2c1=O` [CIPROFLOXACIN], for which the MIC in the test on Desulfovibrio piger [1] was 0.125 µg/mL (≈ 0.377 µM); in [2], > 32 µg/mL; in [3], 0.125 µg/mL (≈ 0.377 µM); in test [5] it was 0.19 µg/mL (≈ 0.573 µM). Further, the MIC50 in the test on Desulfovibrio sp. [4] is 0.5 µg/mL (≈ 1.51 µM). Further, the MIC90 in the test with Desulfovibrio sp. [4] was > 32 µg/mL.

Values taken from ChEMBL document CHEMBL1649294, “Susceptibilities of 23 Desulfovibrio isolates from humans” (2009).
